The term Kd denotes the concentration at which binding is half-saturated. Low readings indicate a tighter complex, high ones a looser complex.

For the experiment, the target named is T1, OsCERK1-ECD (Oryza sativa, UniProt A0A0P0XII1).
T1 construct: gene CERK1; N-terminal gp67 signal peptide for secretion, C-terminal His6; baculovirus, Trichoplusia ni High Five cells; secreted soluble protein
T1 sequence (A0A0P0XII1 19-240 limits assumed): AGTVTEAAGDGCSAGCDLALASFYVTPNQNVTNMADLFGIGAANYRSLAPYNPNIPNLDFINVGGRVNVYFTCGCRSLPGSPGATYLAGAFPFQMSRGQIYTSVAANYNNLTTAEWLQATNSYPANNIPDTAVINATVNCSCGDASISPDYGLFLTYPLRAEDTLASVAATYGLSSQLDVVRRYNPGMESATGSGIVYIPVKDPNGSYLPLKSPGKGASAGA
Put plainly: microscale thermophoresis, label-free. The format is binding. Particulars: 50 mM Tris-HCl pH 7.8, 150 mM NaCl, 10 mM MgCl2, 0.05% Tween-20. On the technique in general: Microscale thermophoresis detects binding through changes in fluorescence in a small temperature gradient.
For `OC[C@H]1O[C@@H](O[C@H]2[C@H](O)[C@@H](O)[C@H](O[C@H]3[C@H](O)[C@@H](O)[C@H](O[C@H]4[C@H](O)[C@@H](CO)OC(O)[C@@H]4O)O[C@@H]3CO)O[C@@H]2CO)[C@H](O)[C@@H](O)[C@@H]1O` (stereo partly drawn) [BGTETB, 3^1-β-D-cellotriosyl-glucose], binding was characterised by a dissociation constant (Kd) of 2900 ± 570 nM.

For `OC[C@H]1O[C@@H](O[C@@H]2[C@@H](O)[C@H](O[C@H]3[C@H](O)[C@@H](O)C(O)O[C@@H]3CO)O[C@H](CO)[C@H]2O)[C@H](O)[C@@H](O)[C@@H]1O` (stereo partly drawn) [BGTRIA, 3^2-β-D-glucosyl-cellobiose], binding was put at a Kd of 4380 ± 580 nM.

`OC[C@H]1O[C@@H](O[C@H]2[C@H](O)[C@@H](O)[C@H](O[C@H]3[C@H](O)[C@@H](CO)OC(O)[C@@H]3O)O[C@@H]2CO)[C@H](O)[C@@H](O)[C@@H]1O` (stereo partly drawn) [BGTRIB, 3^1-β-D-cellobiosyl-glucose] returned a dissociation constant Kd of 1950 ± 450 nM.

`OC[C@H]1O[C@@H](O[C@H]2[C@H](O)[C@@H](O)[C@H](O[C@H]3[C@H](O)[C@@H](O)[C@H](O[C@H]4[C@H](O)[C@@H](O)C(O)O[C@@H]4CO)O[C@@H]3CO)O[C@@H]2CO)[C@H](O)[C@@H](O)[C@@H]1O` (some centres unmarked) [CTE, cellotetraose] displayed a Kd of 2840 ± 890 nM.

For `OC[C@H]1O[C@@H](O[C@H]2[C@H](O)[C@@H](O)[C@H](O[C@H]3[C@H](O)[C@@H](O)C(O)O[C@@H]3CO)O[C@@H]2CO)[C@H](O)[C@@H](O)[C@@H]1O` (some centres unmarked) [CTR, cellotriose], the affinity, expressed as Kd, was 4280 ± 1670 nM.

The values are drawn from paper PMC8042013 (Nature Communications, 2021).
